According to patent US9289433B2, “Proteasome inhibitors and uses thereof” (Yeda Research and Development Co. Ltd., priority 2009, dated 2016):
Non-standard residues stand in square brackets, D forms with d. Residues, ends and D or L forms follow the SMILES beside them. *: point of attachment. Nle = CCCC[C@H](N)C(=O)O; Cbz = O=C(OCc1ccccc1)*

What was measured:
[1] = tested on: NCI-60 panel of human tumor cell lines; details: molar concentration, cited from earlier work; for average −log10 GI50 over the panel: all NCI-60 cell lines; for overall −log10 GI50, leukemia cells: leukemia subpanel
[2] = molecular target: T1, proteasome (Homo sapiens, UniProt P28072+P28074+Q99436); test: Western blot for accumulation of polyubiquitinated proteins and β-catenin in H1299-PIR cells; type: cell-based; details: 6 hours
T1 construct: endogenous in cells; host or cells: H1299-PIR (H1299 stably expressing the p53-YFP reporter)
Procedure: H1299-PIR cells were lysed with radioimmune precipitation assay buffer (1% NP-40, 1% sodium deoxycholate, 0.1% SDS, 150 mM NaCl, 50 mM Tris, pH 8.0) containing a protease inhibitor cocktail from Roche Applied Science. Protein extracts were subjected to 8% SDS-PAGE, transferred to a nitrocellulose membrane (Whatman), and probed with monoclonal anti-p53 (DO1, Santa Cruz Biotechnology), anti-ubiquitin (Covance), anti-β-catenin (Sigma) and anti-β-tubulin (Sigma) primary antibodies.
One characteristic outcome of proteasome inhibition is the accumulation of ubiquitinated proteins in the treated cells. […] Following incubation, cell extracts were analyzed by Western blot, using anti-ubiquitin and anti-β-catenin antibodies.

[3] = tested on: purified rabbit 26S proteasomes; test: In vitro proteasome activity assay, Suc-LLVY-AMC degradation; type: biochemical; details: MG132 control at 5 μM
Procedure: For measuring proteasome activity, purified 20S or 26S proteasomes prepared from rabbit muscles were incubated at a final concentration of 16 nM, with 100 μM fluorogenic 7-amido-4-methylcoumarin (AMC) tetrapeptide substrate Suc-LLVY-AMC (Bachem) and the stated concentration of the hit compounds in the presence of 100 μl of assay buffer (50 mM Hepes, 5 mM MgCl2, 2 mM ATP and 1 mM DTT). […] The time-dependent increase of hydrolyzed AMC groups was measured in a 96-well plate equilibrated to 37° C., using a Varioscan multi-well plate reader (Thermo Fisher Scientific, Inc.) in a kinetic mode, in which the recording intervals were set to 1 minute. The excitation wavelength was 370 nm; fluorescence emission was recorded at 465 nm.
To directly test the capacity of the four compounds to inhibit activity in mammalian proteasomes, an in vitro activity assay was performed in which the hit compounds were tested for their effects on the degradation of the model fluorogenic tetrapeptide LLVY-AMC by purified rabbit 26S proteasomes.

[4] = tested on: PIR-H1299 cells; test: AlamarBlue cell viability assay; type: cell-based, human; details: 48 hours, 0.1 to 100 μM
Procedure: The effect of each hit compound on cell viability was tested at 11 different concentrations, ranging from 0.1-100 μM. PIR cells were plated onto 384-well microplates for 24 hours, and then treated for 48 h with the library compounds. Cell viability was determined using the colorimetric AlamarBlue® (Invitrogen) viability assay, according to the manufacturer's instructions.
Proteasome inhibitors are known to be particularly cytotoxic to malignant cells via multiple mechanisms. To directly test the effects of the new proteasome inhibitors discovered in this study on cell viability, PIR-expressing H1299 cells were treated for 48 hours with each of the four compounds, at a wide range of concentrations, ranging from 0.1 to 100 μM. The cells were then subjected to an Alamar Blue viability assay, which quantifies the number of metabolically active cells. […] For all proteasome inhibitors examined in this screen, there was a high correlation between proteasomal inhibitory activity and cell viability.

[5] = molecular target: T1, proteasome; test: Image-based PIR nuclear translocation assay in H1299-PIR reporter cells; type: cell-based; details: for PIR nuclear translocation in the NCI Diversity Set screen: 1 and 10 μM, 12 hours incubation; for PIR nuclear translocation upon treatment with known proteasome inhibitors: H1299-PIR cells, 6 hours, microscopy
From the text: To construct a YFP-tagged Proteasome Inhibitor Reporter (PIR) protein, cDNA encoding a full-length human p53 R175H mutant was amplified by PCR from a cDNA clone, and three consecutive lysine residues in the bipartite Nuclear Localization Signal (NLS) were replaced with alanines by PCR-based, site-directed mutagenesis [Higuchi R, et al., (1988) Nucleic Acids Res 16: 7351-7367; Ho S N, et al (1989) Gene 77: 51-59]. The DNA fragment was cloned into the BglII and NotI sites of pLPCX retroviral vector (Clontech) in-frame to the N-terminus of the yellow fluorescent protein (YFP), using the NotI/ClaI restriction sites. The PIR protein was expressed in an H1299 non-small cell lung carcinoma cell line, following retroviral infection, and the cells were cultured in RPMI 1640 medium containing 10% fetal bovine serum, 2 mM glutamine and 1% penicillin-streptomycin (all from Sigma-Aldrich) in a humidified atmosphere of 5% CO2 at 37° C. Fluorescent cells were isolated by flow cytometry, and single-cell cloning was used to generate a morphologically uniform cell population.
PIR-expressing H1299 cells were seeded at a density of 800 cells per well in 384-well assay plates (F-bottom, μClear, black, tissue-culture-treated) (Greiner Bio-One). Cells were cultured for 24 hours and treated with the library compounds at two concentrations (1 and 10 μM) in RPMI 1640. In each assay plate, cells in 24 wells treated with 0.2% DMSO alone were used as controls. […] Following 12 hours of incubation, cells were fixed in 3% paraformaldehyde for 20 minutes, then washed with PBS and screened for localization of the PIR protein.
WiScan™ Cell Imaging System (Idea Bio-Medical) was used for this screen [Paran Y et al., 2006, Methods Enzymol 414: 228-247]. The system is based on an IX71 microscope (Olympus), equipped with a fast laser AutoFocus device and an automated stage. Thirty-six fields were acquired from every well using a 60×/0.9 air objective, stored, and tiled into montages to detect consistent effects. Scoring of the nuclear translocation of the fluorescent PIR protein was carried out manually.
The cells were then fixed and scored for nuclear translocation of PIR.

[6] = molecular target: T1, proteasome; details: after 20 hours of treatment, flow cytometry; cited from earlier work
[7] = tested on: MCF10A; test: Cell viability, normal breast epithelial cell line; type: cell-based, human; details: considerably higher concentration than for MDA-MB-231
[8] = tested on: MDA-MB-231 cells; test: Cell viability, malignant breast carcinoma cells; type: cell-based, human
[9] = molecular target: proteasome β2, β1 and β5 activities (Homo sapiens, UniProt P28072+P28074+Q99436); test: Inhibition of tryptic-, caspase- and chymotrypsin-like proteasome activities; type: biochemical
Sequence of proteasome β2, β1 and β5 activities (Q99436 44-277): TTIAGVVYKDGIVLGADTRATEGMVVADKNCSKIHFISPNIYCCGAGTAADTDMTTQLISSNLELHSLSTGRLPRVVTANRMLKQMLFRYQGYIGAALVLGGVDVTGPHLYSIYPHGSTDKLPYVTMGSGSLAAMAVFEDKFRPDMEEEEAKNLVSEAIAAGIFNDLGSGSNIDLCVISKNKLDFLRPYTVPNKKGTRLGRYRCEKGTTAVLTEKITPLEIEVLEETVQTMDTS
Sequence of proteasome β2, β1 and β5 activities (P28072 whole entry): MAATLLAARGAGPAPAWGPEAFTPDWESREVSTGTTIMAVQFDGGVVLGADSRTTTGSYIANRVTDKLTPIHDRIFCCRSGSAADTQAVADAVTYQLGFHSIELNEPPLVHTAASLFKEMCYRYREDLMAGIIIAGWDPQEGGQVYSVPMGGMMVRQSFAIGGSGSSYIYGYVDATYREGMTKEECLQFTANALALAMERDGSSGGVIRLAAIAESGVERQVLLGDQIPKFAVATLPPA
Sequence of proteasome β2, β1 and β5 activities (P28074 60-263): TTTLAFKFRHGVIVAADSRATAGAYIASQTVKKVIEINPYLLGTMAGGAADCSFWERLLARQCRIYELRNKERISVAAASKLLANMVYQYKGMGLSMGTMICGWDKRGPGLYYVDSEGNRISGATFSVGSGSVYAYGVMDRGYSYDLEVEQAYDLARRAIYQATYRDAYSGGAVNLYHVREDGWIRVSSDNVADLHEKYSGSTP
Sequence of proteasome β2, β1 and β5 activities (P49720 whole entry partner): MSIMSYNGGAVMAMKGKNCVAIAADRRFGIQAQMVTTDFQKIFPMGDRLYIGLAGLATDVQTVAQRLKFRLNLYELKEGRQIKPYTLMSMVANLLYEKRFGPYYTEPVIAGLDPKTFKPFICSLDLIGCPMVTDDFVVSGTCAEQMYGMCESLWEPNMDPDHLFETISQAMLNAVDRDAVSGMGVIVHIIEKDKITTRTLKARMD

Row | Compound | average −log10 GI50 over the panel [1] | overall −log10 GI50, leukemia cells [1] | GI50 [4] | PIR nuclear translocation in the NCI Diversity Set screen [5] | PIR nuclear translocation upon treatment with known proteasome inhibitors [5] | inhibition of LLVY-AMC degradation by purified 26S proteasome ([3]; 30 μM compound) | also measured
1 | 8-Quinolinol salicylate [NSC3907] | 5.3 | 6.249 | 47 µM | positive in the assay | – | – | accumulation of polyubiquitinated proteins and β-catenin (inhibitory effect on proteasomal degradation) ([2]; 20 μM): less of an inhibitory effect; inhibition of LLVY-AMC degradation by purified 26S proteasome ([3]; 100 μM compound): only a minor effect
2 | CCCC[C@@H](C=O)NC(=O)[C@H](CC(C)C)NC(=O)[C@H](CC(C)C)NC(C)=O [ALLN, reference compound] (Ac-Leu-Leu-[Nle]-aldehyde) | – | – | – | – | PIR translocates into the nucleus | – | –
3 | CC(C)C[C@H](NC(=O)[C@H](Cc1ccccc1)NC(=O)c1cnccn1)B(O)O [Bortezomib, Pyz-Phe-boroLeu, reference compound] | – | – | – | – | PIR translocates into the nucleus | – | –
4 | CC(C)C[C@@H](C=O)NC(=O)[C@H](CC(C)C)NC(=O)[C@H](CC(C)C)NC(=O)OCc1ccccc1 [MG132, reference compound] (Cbz-Leu-Leu-Leu-aldehyde) | – | – | – | – | PIR translocates into the nucleus | – | concentration at which MG132 is detected [6]: 2.5 µM
5 | NC(CCC(=O)O)C(=O)O (centres unmarked) [NSC99671] | 4.1 | 4.473 | 96 µM | positive in the assay | – | moderate inhibitory effect | accumulation of polyubiquitinated proteins and β-catenin (inhibitory effect on proteasomal degradation) ([2]; 50 μM): less of an inhibitory effect
6 | CS/C([S-])=N/N=C/c1cccc(C)n1.CS/C([S-])=N/N=C/c1cccc(C)n1.[Cu+2] [NSC310551] | 6.6 | 7.028 | 0.27 µM | positive in the assay | – | levels of inhibition comparable to that of MG132 | accumulation of polyubiquitinated proteins and β-catenin (inhibitory effect on proteasomal degradation) ([2]; 0.3 μM): inhibitory activity comparable to that of 5 μM MG132
7 | CSC(=[SH+])[N-]N=C(c1ccccn1)c1ccccn1.[Cu][Br] [NSC321206] | 7.2 | 7.73 | 0.17 µM | positive in the assay | – | levels of inhibition comparable to that of MG132 | effect on cell viability [7]: only partially affected; accumulation of polyubiquitinated proteins and β-catenin (inhibitory effect on proteasomal degradation) ([2]; 0.15 μM): inhibitory activity comparable to that of 5 μM MG132; GI50 ([8]; MDA-MB-231): 400 nM; effect on cell viability ([8]; MDA-MB-231, 1 μM): effectively eliminated all MDA-MB-231 cells; inhibition of Tryptic like (β2), Caspase like (β1) and Chymotrypsin like (β5) activities of the proteasome [9]: observed inhibition
